Experiments:
rUGT1A4 = target: T1, rUGT1A4 (Homo sapiens, UniProt P22310); experiment: UGT phenotyping of GL-V9 glucuronidation, rUGT1A4; assay type: in vitro ADME; conditions: GL-V9 0.5, 1, 5 μM, 37 °C, 1 h
T1 construct: purchased Corning (Woburn, MA, USA)
T1 sequence (P22310 29-534): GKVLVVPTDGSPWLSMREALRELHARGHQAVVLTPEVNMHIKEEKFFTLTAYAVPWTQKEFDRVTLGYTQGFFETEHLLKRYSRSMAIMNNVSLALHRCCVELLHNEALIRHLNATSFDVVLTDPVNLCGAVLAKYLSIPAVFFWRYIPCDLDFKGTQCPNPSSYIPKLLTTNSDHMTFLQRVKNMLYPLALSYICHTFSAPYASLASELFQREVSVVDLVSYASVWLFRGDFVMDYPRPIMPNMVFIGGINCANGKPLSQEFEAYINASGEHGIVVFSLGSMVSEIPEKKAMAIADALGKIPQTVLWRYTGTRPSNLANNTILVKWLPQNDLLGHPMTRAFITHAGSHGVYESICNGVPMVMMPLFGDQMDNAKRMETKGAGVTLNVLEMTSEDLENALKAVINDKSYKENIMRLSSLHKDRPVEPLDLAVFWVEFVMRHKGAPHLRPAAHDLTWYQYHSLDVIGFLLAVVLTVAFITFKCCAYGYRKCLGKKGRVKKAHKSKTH
Experimental: (§1) The composition of the incubation system (200 μL) contained liver microsomes of different species (0.1 mg protein/mL), 5 mM saccharolactone (D-saccharic acid 1,4-lactone monohydrate), 10 mM MgCl2, alamethicin (50 μg/mg protein), Tris-HCl buffer (50 mM, pH 7.4) and GL-V9 (1 μM). After 5 min of preincubation at 37 °C, UDPGA (5 mM) was added to initiate the phase II reaction. Control incubation samples were performed without UDPGA or without substrates (GL-V9). The reaction was terminated by addition of ice-cold methanol (three volumes) after incubation for 1 h at 37 °C. Samples were vortexed, centrifuged at 21,500× g for 10 min and then stored at 4 °C until HPLC-UV-TripleTOF analysis. To confirm that these metabolites are conjugates resulting from glucuronidation reaction, enzymatic hydrolysis of samples was processed. β-glucuronidase (100 KU, Sigma) was added and the hydrolysis was performed overnight at 37 °C. The control samples were carried out without β-glucuronidase under the same condition.
(§2) Twelve human recombinant UGT isoforms (rUGT1A1, rUGT1A3, rUGT1A4, rUGT1A6, rUGT1A7, rUGT1A8, rUGT1A9, rUGT1A10, rUGT2B4, rUGT2B7, rUGT2B15, and rUGT2B17) were employed to identify the main UGT enzyme(s) responsible for glucuronidation of GL-V9 under mixture conditions as described in Section 4.3. […]

[1] = Enzyme kinetics of GL-V9 glucuronidation in human liver microsomes (HLMs); assay type: in vitro ADME; conditions: human, liver microsomes, pH 7.4, formation of 5-O-glucuronide GL-V9, protein 0.075 mg/mL, mean ± SD, n = 3
Experimental: as §1
(§3) Enzyme kinetics experiments were carried out in triplicate among five different species, including monkey, beagle dog, rat, mouse, and human. The reaction system and operations are as same as described in Section 4.3. The solutions of GL-V9 were selected over a range of concentrations (0.05, 0.2, 0.5, 1, 2, 5, 10, 20 μM). […]

[2] = tested on: human liver microsomes (HLMs); experiment: as above; assay type: in vitro ADME; conditions: formation of 5-O-glucuronide GL-V9, protein 0.075 mg/mL, mean ± SD, n = 3
Experimental: as §1, §3

rUGT1A3 = target: T2, rUGT1A3 (Homo sapiens, UniProt P35503); experiment: UGT phenotyping of GL-V9 glucuronidation, rUGT1A3; assay type: in vitro ADME; conditions: GL-V9 0.5, 1, 5 μM, 37 °C, 1 h
T2 construct: purchased Corning (Woburn, MA, USA)
T2 sequence (P35503 29-534): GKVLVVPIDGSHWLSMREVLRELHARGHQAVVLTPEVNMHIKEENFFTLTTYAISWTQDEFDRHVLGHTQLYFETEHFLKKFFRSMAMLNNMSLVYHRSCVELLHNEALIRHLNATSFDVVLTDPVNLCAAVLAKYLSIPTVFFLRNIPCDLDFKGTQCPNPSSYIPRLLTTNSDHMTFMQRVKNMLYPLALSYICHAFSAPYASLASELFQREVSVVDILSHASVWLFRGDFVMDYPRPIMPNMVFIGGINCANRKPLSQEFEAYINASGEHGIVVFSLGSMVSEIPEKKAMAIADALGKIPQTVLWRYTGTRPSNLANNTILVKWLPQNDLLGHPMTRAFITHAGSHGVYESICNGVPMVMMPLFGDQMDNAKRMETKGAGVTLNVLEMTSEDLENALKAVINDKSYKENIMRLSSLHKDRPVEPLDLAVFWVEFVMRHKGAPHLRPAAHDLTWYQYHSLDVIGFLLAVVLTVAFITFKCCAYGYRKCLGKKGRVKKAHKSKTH
Experimental: as §1, §2

[3] = cited from earlier work
[4] = Enzyme kinetics of GL-V9 glucuronidation in mouse liver microsomes (MiceLMs); assay type: in vitro ADME; conditions: mouse, liver microsomes, pH 7.4, formation of 5-O-glucuronide GL-V9, protein 0.2 mg/mL, mean ± SD, n = 3
Experimental: as §1, §3

[5] = tested on: mouse liver microsomes (MiceLMs); experiment: as above; assay type: in vitro ADME; conditions: formation of 5-O-glucuronide GL-V9, protein 0.2 mg/mL, mean ± SD, n = 3
Experimental: as §1, §3

[6] = GL-V9 in rat plasma, oral (gavage) GL-V9 50 mg/kg, n=6, mean ± SD
[7] = GL-V9 in rats, oral GL-V9 50 mg/kg, n=6, mean ± SD

Which results are given for `COc1c(OCCCCN2CCCC2)cc(O)c2c(=O)cc(-c3ccccc3)oc12` [GL-V9]?
Metabolism rate (glucuronidation) (rUGT1A4): too low to be biologically relevant; Km at 1 h [1]: 11.2 ± 0.66 µM; Vmax [2]: 88.49 ± 4.21 pmol/min/mg; Metabolism rate (glucuronidation) (rUGT1A3): too low to be biologically relevant; AUC(0-t) [3, 6]: 1212.06 ± 246.47 ng·h/mL; Cmax [3, 6]: 167.33 ± 50.05 ng/mL; T1/2 [3, 6]: 3.08 ± 1.05 h; AUC(0-inf) ([3]; GL-V9 in rat plasma, oral GL-V9 50 mg/kg, n=6, mean ± SD): 1256.04 ± 271.82 ng·h/mL; Tmax ([3]; GL-V9 in rat plasma, oral GL-V9 50 mg/kg, n=6): 0.31 to 0.77 h; F ([3]; GL-V9 in rats, oral GL-V9 50 mg/kg): 8.54%; CL [3, 7]: 689.7 ± 147 mL/min/kg; MRT0-t [3, 7]: 7.70 ± 0.91 h; Vd [3, 7]: 181.06 ± 63.57 L/kg; Km at 1 h [4]: 20.1 ± 1.04 µM; Vmax [5]: 153.2 ± 10.44 pmol/min/mg

From article PMC6515479, “An Investigation on Glucuronidation Metabolite Identification, Isozyme Contribution, and Species Differences of GL-V9 In Vitro and In Vivo” (Molecules, 2019)
